According to PubChem BioAssay (NCI):
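Five concentrations, 48 hours, 96-well plates. TGI: concentration producing complete growth inhibition.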

What was measured:
Assay in all cases: NCI-60 cell line screen, 48 h
MDA-MB-435 = system: MDA-MB-435
TK-10 renal = system: TK-10 renal
MDA-MB-231 breast = system: MDA-MB-231 breast
OVCAR-8 ovarian = system: OVCAR-8 ovarian
HL-60(TB) leukemia = system: HL-60(TB) leukemia
786-0 renal = system: 786-0 renal
DU-145 prostate = system: DU-145 prostate
HCT-15 colon = system: HCT-15 colon
SK-MEL-28 melanoma = system: SK-MEL-28 melanoma
SF-268 CNS = system: SF-268 CNS
NCI-H23 lung = system: NCI-H23 lung
UACC-62 melanoma = system: UACC-62 melanoma
MALME-3M melanoma = system: MALME-3M melanoma
HCC-2998 colon = system: HCC-2998 colon
U251 CNS = system: U251 CNS
MDA-N = system: MDA-N
PC-3 prostate = system: PC-3 prostate
SR leukemia = system: SR leukemia
MOLT-4 leukemia = system: MOLT-4 leukemia
NCI-H522 lung = system: NCI-H522 lung
SN12C renal = system: SN12C renal
SF-295 CNS = system: SF-295 CNS
SNB-19 CNS = system: SNB-19 CNS
M14 melanoma = system: M14 melanoma
RXF 393 renal = system: RXF 393 renal
NCI/ADR-RES ovarian = system: NCI/ADR-RES ovarian
UACC-257 melanoma = system: UACC-257 melanoma
EKVX NSCLC = system: EKVX NSCLC
NCI-H226 lung = system: NCI-H226 lung
SNB-75 CNS = system: SNB-75 CNS
HOP-92 NSCLC = system: HOP-92 NSCLC
K-562 leukemia = system: K-562 leukemia
COLO 205 colon = system: COLO 205 colon
NCI-H460 lung = system: NCI-H460 lung
RPMI-8226 leukemia = system: RPMI-8226 leukemia
T-47D breast = system: T-47D breast
LOX IMVI melanoma = system: LOX IMVI melanoma
SK-MEL-5 melanoma = system: SK-MEL-5 melanoma
UO-31 renal = system: UO-31 renal
SK-MEL-2 melanoma = system: SK-MEL-2 melanoma
OVCAR-3 ovarian = system: OVCAR-3 ovarian
SF-539 CNS = system: SF-539 CNS
OVCAR-4 ovarian = system: OVCAR-4 ovarian
HT29 colon = system: HT29 colon
HOP-62 NSCLC = system: HOP-62 NSCLC
HCT-116 colon = system: HCT-116 colon
OVCAR-5 ovarian = system: OVCAR-5 ovarian
MCF7 breast = system: MCF7 breast
SK-OV-3 ovarian = system: SK-OV-3 ovarian
HS 578T breast = system: HS 578T breast
IGROV1 ovarian = system: IGROV1 ovarian
CCRF-CEM leukemia = system: CCRF-CEM leukemia
A498 renal = system: A498 renal
KM12 colon = system: KM12 colon
ACHN renal = system: ACHN renal
CAKI-1 renal = system: CAKI-1 renal
SW-620 colon = system: SW-620 colon
BT-549 breast = system: BT-549 breast
A549 NSCLC = system: A549 NSCLC

## CCCCCCCCCCCC(=O)NCc1ccc(OC(=O)CCCCCCCCCCC)c(OC)c1
MDA-MB-435
  TGI: > 100 µM
TK-10 renal
  TGI: > 100 µM
MDA-MB-231 breast
  TGI: > 100 µM
OVCAR-8 ovarian
  TGI: > 100 µM
HL-60(TB) leukemia
  TGI: 37.8 µM
786-0 renal
  TGI: > 100 µM
DU-145 prostate
  TGI: > 100 µM
HCT-15 colon
  TGI: > 100 µM
SK-MEL-28 melanoma
  TGI: > 100 µM
SF-268 CNS
  TGI: > 100 µM
NCI-H23 lung
  TGI: > 100 µM
UACC-62 melanoma
  TGI: > 100 µM
MALME-3M melanoma
  TGI: > 100 µM
HCC-2998 colon
  TGI: > 100 µM
U251 CNS
  TGI: > 100 µM
MDA-N
  TGI: > 100 µM
PC-3 prostate
  TGI: 97.9 µM
SR leukemia
  TGI: > 92.8 µM
MOLT-4 leukemia
  TGI: > 100 µM
NCI-H522 lung
  TGI: 12.2 µM
SN12C renal
  TGI: > 100 µM
SF-295 CNS
  TGI: > 100 µM
SNB-19 CNS
  TGI: > 100 µM
M14 melanoma
  TGI: > 100 µM
RXF 393 renal
  TGI: > 100 µM
NCI/ADR-RES ovarian
  TGI: > 100 µM
UACC-257 melanoma
  TGI: > 100 µM
EKVX NSCLC
  TGI: > 100 µM
NCI-H226 lung
  TGI: > 100 µM
SNB-75 CNS
  TGI: > 100 µM
HOP-92 NSCLC
  TGI: > 100 µM
K-562 leukemia
  TGI: > 100 µM
COLO 205 colon
  TGI: > 72.4 µM
NCI-H460 lung
  TGI: > 100 µM
RPMI-8226 leukemia
  TGI: > 100 µM
T-47D breast
  TGI: > 100 µM
LOX IMVI melanoma
  TGI: > 100 µM
SK-MEL-5 melanoma
  TGI: > 100 µM
UO-31 renal
  TGI: > 100 µM
SK-MEL-2 melanoma
  TGI: > 100 µM
OVCAR-3 ovarian
  TGI: > 100 µM
SF-539 CNS
  TGI: 16.7 µM
OVCAR-4 ovarian
  TGI: > 100 µM
HT29 colon
  TGI: > 100 µM
HOP-62 NSCLC
  TGI: > 100 µM
HCT-116 colon
  TGI: > 100 µM
OVCAR-5 ovarian
  TGI: > 100 µM
MCF7 breast
  TGI: > 100 µM
SK-OV-3 ovarian
  TGI: > 100 µM
HS 578T breast
  TGI: > 100 µM
IGROV1 ovarian
  TGI: > 57.3 µM
CCRF-CEM leukemia
  TGI: 11.6 µM
A498 renal
  TGI: > 100 µM
KM12 colon
  TGI: > 100 µM
ACHN renal
  TGI: > 100 µM
CAKI-1 renal
  TGI: > 100 µM
SW-620 colon
  TGI: > 100 µM
BT-549 breast
  TGI: > 100 µM
A549 NSCLC
  TGI: > 100 µM

## CCC(C)NC(=S)N/N=C(\C)c1nc2ncccc2[nH]1 (stereo not drawn)
MDA-MB-435
  TGI: > 100 µM
TK-10 renal
  TGI: > 100 µM
MDA-MB-231 breast
  TGI: > 100 µM
OVCAR-8 ovarian
  TGI: > 100 µM
HL-60(TB) leukemia
  TGI: > 100 µM
786-0 renal
  TGI: > 100 µM
DU-145 prostate
  TGI: > 100 µM
HCT-15 colon
  TGI: > 100 µM
SK-MEL-28 melanoma
  TGI: > 100 µM
SF-268 CNS
  TGI: > 88.4 µM
NCI-H23 lung
  TGI: > 100 µM
UACC-62 melanoma
  TGI: 79.7 µM
MALME-3M melanoma
  TGI: > 100 µM
HCC-2998 colon
  TGI: > 100 µM
U251 CNS
  TGI: > 100 µM
MDA-N
  TGI: > 100 µM
PC-3 prostate
  TGI: > 100 µM
SR leukemia
  TGI: > 85.6 µM
MOLT-4 leukemia
  TGI: 46.6 µM
NCI-H522 lung
  TGI: > 100 µM
SN12C renal
  TGI: > 100 µM
SF-295 CNS
  TGI: > 100 µM
SNB-19 CNS
  TGI: 97.8 µM
M14 melanoma
  TGI: 62.6 µM
RXF 393 renal
  TGI: > 75.6 µM
NCI/ADR-RES ovarian
  TGI: > 79.5 µM
UACC-257 melanoma
  TGI: > 100 µM
EKVX NSCLC
  TGI: > 100 µM
NCI-H226 lung
  TGI: 38.7 µM
SNB-75 CNS
  TGI: > 100 µM
HOP-92 NSCLC
  TGI: 44.6 µM
K-562 leukemia
  TGI: > 100 µM
COLO 205 colon
  TGI: > 100 µM
NCI-H460 lung
  TGI: > 100 µM
RPMI-8226 leukemia
  TGI: > 100 µM
T-47D breast
  TGI: > 56.7 µM
LOX IMVI melanoma
  TGI: > 100 µM
SK-MEL-5 melanoma
  TGI: 28.6 µM
UO-31 renal
  TGI: 11.6 µM
SK-MEL-2 melanoma
  TGI: > 100 µM
OVCAR-3 ovarian
  TGI: > 100 µM
SF-539 CNS
  TGI: 70.5 µM
OVCAR-4 ovarian
  TGI: > 73 µM
HT29 colon
  TGI: > 100 µM
HOP-62 NSCLC
  TGI: > 100 µM
HCT-116 colon
  TGI: > 100 µM
OVCAR-5 ovarian
  TGI: > 84 µM
MCF7 breast
  TGI: > 100 µM
SK-OV-3 ovarian
  TGI: > 69.9 µM
HS 578T breast
  TGI: > 100 µM
IGROV1 ovarian
  TGI: > 100 µM
CCRF-CEM leukemia
  TGI: 38.7 µM
A498 renal
  TGI: > 100 µM
KM12 colon
  TGI: > 100 µM
ACHN renal
  TGI: > 100 µM
CAKI-1 renal
  TGI: 49.4 µM
SW-620 colon
  TGI: > 100 µM
BT-549 breast
  TGI: > 72.3 µM
A549 NSCLC
  TGI: > 100 µM
